Reference: PMC11157767 (Molecular Cancer, 2024)

System: TFG-MET allograft tumors
Assay: RNA-sequencing, differential expression and GSEA of TFG-MET allograft tumors
Format: in vivo, mouse
Experimental: Error bars display standard error of mean, statistical significance was determined using t-test analysis. (****;p<0.0001, ***;p<0.001, **;p<0.01, *;p<0.05). […] Each dot represents an individual replicate. Error bars display standard error of the mean.
Each dot represents one gene.

[1] = GSEA CAP vs Veh, C5 GO CC, padj 0.0837675
[2] = GSEA CAP vs Veh, C5 GO CC, padj 0.118081
[3] = GSEA CAP vs Veh, C5 GO CC, padj 0.15025
[4] = GSEA CAP vs Veh, C5 GO CC, padj 0.172143
[5] = GSEA CAP vs Veh, C5 GO CC, padj 0.185573
[6] = GSEA CAP vs Veh, C5 GO CC, padj 0.189724
[7] = GSEA CAP vs Veh, C5 GO CC, padj 0.205885
[8] = GSEA CAP vs Veh, C5 GO CC, padj 0.207988
[9] = capmatinib vs vehicle, PD cohort

**Q.** For CNC(=O)c1ccc(-c2cnc3ncc(Cc4ccc5ncccc5c4)n3n2)cc1F [Capmatinib], which “NES GOCC_TRIGLYCERIDE_RICH_PLASMA_LIPOPROTEIN_PARTICLE” value [1] is on record?
**A.** The value was 1.6067.

**Q.** What about the “NES GOCC_VESICLE_TETHERING_COMPLEX” value [1] of the same molecule?
**A.** Its value is 1.4789.

**Q.** What about the “NES GOCC_IMMUNOLOGICAL_SYNAPSE” value (GSEA CAP vs Veh, C5 GO CC, padj 0.0851978) of the same molecule?
**A.** The value was 1.513.

**Q.** What about the “NES GOCC_TOR_COMPLEX” value (GSEA CAP vs Veh, C5 GO CC, padj 0.0863609) of the same molecule?
**A.** The value was -1.558.

**Q.** What about the “NES GOCC_POTASSIUM_CHANNEL_COMPLEX” value (GSEA CAP vs Veh, C5 GO CC, padj 0.0898434) of the same molecule?
**A.** Its value is 1.3322.

**Q.** And the “NES GOCC_PHOTORECEPTOR_OUTER_SEGMENT” value (GSEA CAP vs Veh, C5 GO CC, padj 0.0912598)?
**A.** Its value is 1.398.

**Q.** And the “NES GOCC_NON_MOTILE_CILIUM” value (GSEA CAP vs Veh, C5 GO CC, padj 0.0963826)?
**A.** The value was 1.327.

**Q.** What about the “NES GOCC_COLLAGEN_TRIMER” value (GSEA CAP vs Veh, C5 GO CC, padj 0.100203) of the same molecule?
**A.** The value was 1.361.

**Q.** What about the “NES GOCC_CYCLIN_DEPENDENT_PROTEIN_KINASE_HOLOENZYME_COMPLEX” value (GSEA CAP vs Veh, C5 GO CC, padj 0.101289) of the same molecule?
**A.** Its value is -1.485.

**Q.** And the “NES GOCC_PHAGOPHORE_ASSEMBLY_SITE_MEMBRANE” value (GSEA CAP vs Veh, C5 GO CC, padj 0.101632)?
**A.** The value was 1.59.

**Q.** What about the “NES GOCC_MICROTUBULE_END” value (GSEA CAP vs Veh, C5 GO CC, padj 0.104588) of the same molecule?
**A.** The value was -1.488.

**Q.** What about the “NES GOCC_MRNA_CLEAVAGE_AND_POLYADENYLATION_SPECIFICITY_FACTOR_COMPLEX” value (GSEA CAP vs Veh, C5 GO CC, padj 0.106777) of the same molecule?
**A.** Its value is -1.514.

**Q.** What about the “NES GOCC_PERICENTRIOLAR_MATERIAL” value (GSEA CAP vs Veh, C5 GO CC, padj 0.107544) of the same molecule?
**A.** The value was -1.541.

**Q.** What about the “NES GOCC_SPERM_MIDPIECE” value (GSEA CAP vs Veh, C5 GO CC, padj 0.11014) of the same molecule?
**A.** The value was 1.543.

**Q.** What about the “NES GOCC_FILAMENTOUS_ACTIN” value (GSEA CAP vs Veh, C5 GO CC, padj 0.113803) of the same molecule?
**A.** The value was -1.495.

**Q.** And the “NES GOCC_CONDENSED_NUCLEAR_CHROMOSOME” value (GSEA CAP vs Veh, C5 GO CC, padj 0.117551)?
**A.** The value was -1.436.

**Q.** What about the “NES GOCC_ENDOPLASMIC_RETICULUM_EXIT_SITE” value [2] of the same molecule?
**A.** The value was -1.477.

**Q.** And the “NES GOCC_MITOTIC_SPINDLE” value [2]?
**A.** Its value is -1.3459.

**Q.** What about the “NES GOCC_TERTIARY_GRANULE_LUMEN” value [2] of the same molecule?
**A.** Its value is 1.448.

**Q.** What about the “NES GOCC_MICROTUBULE_ORGANIZING_CENTER” value (GSEA CAP vs Veh, C5 GO CC, padj 0.119924) of the same molecule?
**A.** The value was -1.201.

**Q.** And the “NES GOCC_ESC_E_Z_COMPLEX” value (GSEA CAP vs Veh, C5 GO CC, padj 0.125326)?
**A.** The value was -1.503.

**Q.** What about the “NES GOCC_MITOCHONDRIAL_PROTEIN_CONTAINING_COMPLEX” value (GSEA CAP vs Veh, C5 GO CC, padj 0.144325) of the same molecule?
**A.** Its value is 1.2339.

**Q.** And the “NES GOCC_MICROBODY_LUMEN” value [3]?
**A.** The value was 1.378.

**Q.** What about the “NES GOCC_PLATELET_DENSE_GRANULE” value [3] of the same molecule?
**A.** Its value is 1.446.

**Q.** What about the “NES GOCC_POSTSYNAPTIC_CYTOSOL” value [3] of the same molecule?
**A.** The value was -1.504.

**Q.** What about the “NES GOCC_DNA_HELICASE_COMPLEX” value (GSEA CAP vs Veh, C5 GO CC, padj 0.150544) of the same molecule?
**A.** The value was -1.462.

**Q.** And the “NES GOCC_H4_H2A_HISTONE_ACETYLTRANSFERASE_COMPLEX” value (GSEA CAP vs Veh, C5 GO CC, padj 0.153451)?
**A.** The value was -1.479.

**Q.** And the “NES GOCC_T_TUBULE” value (GSEA CAP vs Veh, C5 GO CC, padj 0.166785)?
**A.** Its value is 1.333.

**Q.** And the “NES GOCC_CELL_DIVISION_SITE” value [4]?
**A.** Its value is -1.364.

**Q.** What about the “NES GOCC_CILIARY_MEMBRANE” value [4] of the same molecule?
**A.** Its value is 1.297.

**Q.** What about the “NES GOCC_NUCLEAR_INNER_MEMBRANE” value [4] of the same molecule?
**A.** The value was -1.39.

**Q.** What about the “NES GOCC_SPERM_PRINCIPAL_PIECE” value [4] of the same molecule?
**A.** The value was 1.449.

**Q.** And the “NES GOCC_PROTEIN_KINASE_COMPLEX” value (GSEA CAP vs Veh, C5 GO CC, padj 0.174487)?
**A.** The value was -1.355.

**Q.** What about the “NES GOCC_SARCOPLASMIC_RETICULUM_MEMBRANE” value (GSEA CAP vs Veh, C5 GO CC, padj 0.176238) of the same molecule?
**A.** The value was 1.347.

**Q.** What about the “NES GOCC_TRANSCRIPTION_FACTOR_TFIID_COMPLEX” value (GSEA CAP vs Veh, C5 GO CC, padj 0.181046) of the same molecule?
**A.** The value was -1.393.

**Q.** And the “NES GOCC_ENDOSOME_LUMEN” value [5]?
**A.** The value was 1.406.

**Q.** And the “NES GOCC_SPECIFIC_GRANULE_LUMEN” value [5]?
**A.** The value was 1.358.

**Q.** And the “NES GOCC_CLATHRIN_ADAPTOR_COMPLEX” value [6]?
**A.** The value was 1.366.

**Q.** And the “NES GOCC_MITOTIC_SPINDLE_POLE” value [6]?
**A.** Its value is -1.382.

**Q.** And the “NES GOCC_MEMBRANE_MICRODOMAIN” value (GSEA CAP vs Veh, C5 GO CC, padj 0.192589)?
**A.** Its value is 1.19.

**Q.** And the “NES GOCC_CELL_BODY_MEMBRANE” value (GSEA CAP vs Veh, C5 GO CC, padj 0.197703)?
**A.** Its value is 1.35.

**Q.** And the “NES GOCC_VACUOLAR_PROTON_TRANSPORTING_V_TYPE_ATPASE_COMPLEX” value (GSEA CAP vs Veh, C5 GO CC, padj 0.198626)?
**A.** Its value is 1.413.

**Q.** What about the “NES GOCC_DENDRITIC_SHAFT” value [7] of the same molecule?
**A.** Its value is 1.333.

**Q.** What about the “NES GOCC_NUCLEAR_OUTER_MEMBRANE” value [7] of the same molecule?
**A.** Its value is -1.409.

**Q.** What about the “NES GOCC_SAGA_TYPE_COMPLEX” value (GSEA CAP vs Veh, C5 GO CC, padj 0.206418) of the same molecule?
**A.** Its value is -1.409.

**Q.** What about the “NES GOCC_CLATHRIN_COAT” value [8] of the same molecule?
**A.** Its value is 1.308.

**Q.** What about the “NES GOCC_PHOTORECEPTOR_INNER_SEGMENT” value [8] of the same molecule?
**A.** Its value is 1.275.

**Q.** And the “NES GOCC_INTEGRAL_COMPONENT_OF_SYNAPTIC_VESICLE_MEMBRANE” value (GSEA CAP vs Veh, C5 GO CC, padj 0.210702)?
**A.** Its value is 1.319.

**Q.** And the “expression of Mapk signature genes in tumors” value (RNA-sequencing of treated allograft tumors)?
**A.** Its value is “significant downregulation”.

**Q.** And the “GSEA NES, PID_Atm_pathway” value [9]?
**A.** Its value is -1.751.

**Q.** What about the “GSEA NES, PID_Atr_pathway” value [9] of the same molecule?
**A.** Its value is -2.041.

**Q.** And the “expression of genes involved in the DNA repair machinery” value (capmatinib-treated vs vehicle tumors, PD cohort)?
**A.** Its value is “downregulated”.
